Laboratory results reported in PMC6984126, “Ficus deltoidea extract down-regulates protein tyrosine phosphatase 1B expression in a rat model of type 2 diabetes mellitus: a new insight into its antidiabetic mechanism” (Journal of Nutritional Science, 2020).
Marks after values point to notes of the source that are not given here.

Legend:
[1] = system: PTP1B mRNA; test: Hepatic gene expression by quantitative real-time PCR: PTP1B; conditions: liver mRNA; MET 150 mg/kg
Procedure: (§3) Total RNA was isolated from rat livers using an Rneasy Mini Kit according to the manufacturer's protocol (Qiagen). First-strand cDNA synthesis from 1 µg total RNA was done employing a reverse transcriptase kit and oligo(dT) (Thermo Scientific). PTP1B, phosphoenolpyruvate carboxykinase (PEPCK), glucose 6-phosphatase (G6Pase), GLUT2 (Slc2a2) and insulin receptor (INR) target genes were amplified by quantitative real-time-PCR using specific primers (Supplementary Table S1). cDNA was added to a Quantifast SYBR Green qPCR Master Mix (Qiagen) containing 30 pg/ml of each primer. […] The β-actin gene was amplified in the same reaction as a reference gene to normalise data. Relative gene expression was calculated using the Livak & Schmittgen method([42]).

[2] = system: phosphoenolpyruvate carboxykinase (PEPCK) mRNA; test: Hepatic gene expression by quantitative real-time PCR: PEPCK; conditions: MET 150 mg/kg
Procedure: as §3

[3] = system: streptozotocin–nicotinamide-induced type 2 diabetic rats; test: Serum hepatic markers, bilirubin and total protein in STZ–NA diabetic rats; format: in vivo, Wistar rats; conditions: MET 150 mg/kg orally, 4 weeks
Procedure: (§1) NA was dissolved in normal saline.
(§2) At the end of the 28th day, blood samples were withdrawn from the retro-orbital venous plexus under light ether anaesthesia into two sampling tubes, one containing Na-EDTA at day 28 post-medication for the estimation of Hb([22]). The second blood sample was centrifuged at 3500 rpm for 15 min to separate sera for the estimation of insulin level([23]). Other biochemical parameters such as alanine transaminase and aspartate transaminase activities in serum were measured([24]). Serum levels of total bilirubin([25]), total protein([26]), TAG([27]), total cholesterol([28]), HDL-cholesterol([29]) and LDL-cholesterol([30]) were measured using commercially available kits (Quimica Clinica). Preparation of pancreatic homogenate was done according to Mansour et al.([31]). The activities of superoxide dismutase (SOD), glutathione peroxidase (GPx) and catalase (CAT) in hepatic and pancreatic tissues were estimated([32]–[34]), respectively. Reduced glutathione (GSH)([35]), lipid peroxidation products were estimated by determining malondialdehyde (MDA) content in the hepatic and pancreatic tissue([36]) and GLUT2 was determined using commercial diagnostic kits (Chema Diagnostica)([37]).

[4] = system: streptozotocin–nicotinamide-induced type 2 diabetic rats; test: Pancreatic oxidative stress biomarkers in STZ–NA diabetic rats; format: in vivo, Wistar rats; conditions: MET 150 mg/kg
Procedure: as §1, §2

[5] = system: streptozotocin–nicotinamide-induced type 2 diabetic rats; test: Fasting blood glucose, insulin and Hb in STZ–NA diabetic rats; format: in vivo, Wistar rats; conditions: MET 150 mg/kg orally; 4 weeks
Procedure: as §1, §2

[6] = system: GLUT2 gene (Slc2a2) mRNA; test: Hepatic gene expression by quantitative real-time PCR: Slc2a2; conditions: liver mRNA; MET 150 mg/kg
Procedure: as §3

[7] = system: glucose 6-phosphatase (G6Pase) mRNA; test: Hepatic gene expression by quantitative real-time PCR: G6Pase; conditions: MET 150 mg/kg
Procedure: as §3

[8] = system: GLUT2; test: GLUT2 protein levels in liver and pancreas of diabetic rats; format: in vivo, Wistar rats; conditions: MET 150 mg/kg
Procedure: as §1, §2

[9] = system: insulin receptor (INR) mRNA; test: Hepatic gene expression by quantitative real-time PCR: insulin receptor; conditions: MET 150 mg/kg
Procedure: as §3

Structure (SMILES) | melting point | PTP1B expression level, % of the levels in the diabetic group [1] | Expression of PEPCK in the liver [2] | Total bilirubin [3] | Total protein [3] | Effect on MDA level in the pancreas of diabetic rats [4] | Increase in pancreatic GPx compared with diabetic control rats [4] | Increase in pancreatic GSH content [4] | Hb [5] | Slc2a2 expression, % of the normal level [6] | Expression of G6Pase in the liver [7] | GLUT2 in the liver compared with the diabetic control [8] | GLUT2 in the pancreas compared with the diabetic control [8] | Effect of STZ on hepatic insulin receptor mRNA levels [9]
CC1(C)CC[C@]2(C)CC[C@]3(C)C(=C[C@H](O)C4[C@@]5(C)CC[C@H](O)[C@@](C)(C(=O)O)C5CC[C@]43C)C2C1 (stereo partly drawn) [Compound F3, 3β,11β-dihydroxyolean-12-en-23-oic acid] | 308 to 309 °C |  |  |  |  |  |  |  |  |  |  |  |  | 
CN(C)C(=N)N=C(N)N [MET, metformin] |  | approximately 75% | decreased expression | 4† mg/l | 114* g/l | did not significantly affect | 63% | 46% | 135† g/l | 92% | decreased expression | significantly increased | significantly increased | reversed
